Measured values as given in patent US20030039980A1, “Assays for determination of functional binding of compounds to receptors” (priority 2000, published 2003).

How the values were obtained:
[1] = target: T1, human PPARα ligand binding domain (GST-PPARα-LBD) (Homo sapiens, UniProt Q07869); test: in vitro PPARα/SRC-1 binding assay (GST-PPARα-LBD / SRC-Luc complex captured on glutathione-sepharose beads, luciferase readout)
T1 construct: made in house; host or cells: E. coli BL21(DE3)pLysS
T1 sequence (Q07869 164-468): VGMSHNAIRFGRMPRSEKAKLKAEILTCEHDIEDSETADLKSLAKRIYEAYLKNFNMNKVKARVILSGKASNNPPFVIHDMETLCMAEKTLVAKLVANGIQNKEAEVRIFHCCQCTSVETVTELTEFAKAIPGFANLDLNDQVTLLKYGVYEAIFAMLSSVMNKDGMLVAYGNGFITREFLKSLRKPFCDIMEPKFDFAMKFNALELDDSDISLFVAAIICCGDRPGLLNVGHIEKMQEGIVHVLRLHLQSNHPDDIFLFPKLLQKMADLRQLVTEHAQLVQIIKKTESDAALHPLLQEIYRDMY
T1 sequence (Q15788 631-763 partner limits assumed): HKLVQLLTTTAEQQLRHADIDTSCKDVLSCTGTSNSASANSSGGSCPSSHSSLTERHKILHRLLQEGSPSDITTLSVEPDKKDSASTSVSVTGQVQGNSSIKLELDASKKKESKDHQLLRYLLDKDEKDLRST
Text: For this example, the peroxisome proliferator-activated receptor-α (PPARα) nuclear receptor was chosen. The PPAR LBD was expressed in bacteria as a GST fusion protein (GST-PPARα-LBD) for use in the assay (FIG. 1). Also chosen was a known PPARα coactivator, SRC-1 (Takeshita Endocrinology 137:3594-3597 (1996)). SRC-1 was expressed as a GST fusion protein also containing a firefly luciferase moiety (GST-SRC-Luc). The GST moiety was subsequently cleaved away from purified GST-SRC-1-Luc protein to yield a purified SRC-Luc protein (FIG. 1). A known PPARα ligand, GW2331, was also chosen for establishing the assay.
The GST-PPARα-LBD expression plasmid was prepared as follows: the human PPARα ligand binding domain including the hinge region (amino acids 164-468, accession #S74349) was PCR amplified from HepG2 first-strand cDNA using synthetic primers (SEQ ID:1 and SEQ ID:2) and native Taq polymerase. The primers were tagged with BamHI (5′) and NotI (3′) restriction sites to facilitate cloning. PCR fragments were cloned directly into pGEM®-T (Promega Corp), screened by diagnostic restriction digests, and confirmed by DNA sequence analysis. A combination of clones was used to generate a complete, error-free clone. The PPARα hinge/ligand binding domain clone was then transferred into pGEX-4T-3 (Amersham Pharmacia Biotech) as a BamH I/Not I fragment to create an in-frame fusion with GST. […]

[2] = target: T2, human PPARβ ligand binding domain (GST-PPARβ-LBD) (Homo sapiens, UniProt Q03181); test: in vitro PPARβ/SRC-1 binding assay (GST-PPARβ-LBD / SRC-Luc complex captured on glutathione-sepharose beads, luciferase readout); settings: each ligand at final 5 μM; FIG. 3
T2 construct: made in house
T2 sequence (Q03181 136-441): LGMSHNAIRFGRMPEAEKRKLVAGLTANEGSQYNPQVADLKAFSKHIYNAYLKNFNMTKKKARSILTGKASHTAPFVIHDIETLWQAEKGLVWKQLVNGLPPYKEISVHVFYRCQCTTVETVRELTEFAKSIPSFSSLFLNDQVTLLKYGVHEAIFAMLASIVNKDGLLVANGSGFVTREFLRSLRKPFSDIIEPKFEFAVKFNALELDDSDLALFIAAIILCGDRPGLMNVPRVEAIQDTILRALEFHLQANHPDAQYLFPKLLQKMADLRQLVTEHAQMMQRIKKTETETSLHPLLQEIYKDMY
T2 sequence (Q15788 631-763 partner limits assumed): T1 sequence (Q15788 631-763 partner limits assumed)

CCCCCCCN(CCc1ccc(OC(C)(CC)C(=O)O)cc1)C(=O)Nc1ccc(F)cc1F (stereo not drawn) [GW2331, spec/2-(4-[2-(3[2,4-Difluorophenyl]-1-heptylureido)ethyl]phenoxy)-2-methylbutyric acid]
binding of ligand by GST-PPARα-LBD (luciferase activity of the isolated complex with SRC-Luc) ([1]; each ligand at final 5 μM, FIG. 3): efficiently | amount of GST-PPARα-LBD/GW2331 ligand/SRC-Luc complex (luciferase activity, light units) as the ligand concentration was increased ([1]; ligand at 0.001, 0.01, 0.1, 1.0, 10.0 and 100.0 μM, 2 h at 4° C., FIG. 2): also increased | binding of ligand by GST-PPARβ-LBD (luciferase activity of the isolated complex with SRC-Luc) [2]: roughly equal efficiency
